This passage reports DC50 and Y results from patent US11306101B2 (Celgene Corporation, priority 2019, dated 2022).

Bounds are passed on as bounds.

This test deals with T1, CK1α (Homo sapiens, UniProt P48729+Q96SW2).
T1 construct: expressed in transfected cells
The test can be described thus: CK1α ePL degradation assay in MDS-L cells. In kind it is cell-based. The settings on record: MDS-L cells expressing ePL-tagged CK1α; for DC50: concentration giving 50% CK1α degradation vs DMSO control; for Y: lowest measured CK1α level normalized to DMSO control. As to the method: The following is an example of an assay that can be used to determine the CK1α degradation activity of Isoindolinone Carboxamide Compounds in a cell line, for example, the MDS-L cell line.
Compounds were dispensed by an acoustic dispenser (ATS acoustic transfer system from EDC Biosystems) into a 384-well in a 10 point dose-response curve using 3-fold dilutions starting at 10 μM and going down to 0.0005 μM in DMSO. […] Assay plates were incubated at 37° C. with 5% CO2 for the indicated times. At the different time points, 25 μL of the InCELL Hunter™ Detection Reagent Working Solution (catalog number 96-0002, DiscoverX, Fremont, Calif.) was added to each well and incubated at RT for 30 min protected from light. After 30 min, luminescence was read on a PHERAstar luminometer (BMG LABTECH, Cary, N.C.).
CK1α levels in compound-treated wells were normalized to that of DMSO control and expressed as percent of control (PoC) (y).
The lowest measured CK1α level normalized to DMSO control in response to compound treatment, termed Y value, was used to characterize the compound-mediated CK1α degradation efficiency.

T1 sequence (P48729 whole entry): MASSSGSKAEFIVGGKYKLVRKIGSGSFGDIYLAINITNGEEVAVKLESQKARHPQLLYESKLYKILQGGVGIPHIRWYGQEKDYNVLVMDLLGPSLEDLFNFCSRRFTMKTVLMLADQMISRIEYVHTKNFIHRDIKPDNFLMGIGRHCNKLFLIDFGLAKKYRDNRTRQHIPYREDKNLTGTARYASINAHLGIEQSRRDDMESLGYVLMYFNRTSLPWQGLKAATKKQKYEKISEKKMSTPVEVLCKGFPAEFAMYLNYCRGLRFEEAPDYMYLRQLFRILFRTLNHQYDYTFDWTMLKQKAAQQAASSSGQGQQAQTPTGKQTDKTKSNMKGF
T1 sequence (Q96SW2 whole entry): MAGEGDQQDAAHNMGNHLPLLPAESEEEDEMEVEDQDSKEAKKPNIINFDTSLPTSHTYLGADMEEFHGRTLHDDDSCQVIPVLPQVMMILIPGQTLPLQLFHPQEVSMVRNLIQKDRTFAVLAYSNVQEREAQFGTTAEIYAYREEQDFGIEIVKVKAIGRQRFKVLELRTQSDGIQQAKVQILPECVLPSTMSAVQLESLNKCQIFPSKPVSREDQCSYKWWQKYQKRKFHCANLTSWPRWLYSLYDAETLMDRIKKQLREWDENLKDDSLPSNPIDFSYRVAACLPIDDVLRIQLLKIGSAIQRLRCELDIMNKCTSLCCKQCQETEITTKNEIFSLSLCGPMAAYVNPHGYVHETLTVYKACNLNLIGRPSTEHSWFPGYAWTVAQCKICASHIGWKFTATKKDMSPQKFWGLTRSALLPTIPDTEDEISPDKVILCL
T1 sequence (Q16531 whole entry partner): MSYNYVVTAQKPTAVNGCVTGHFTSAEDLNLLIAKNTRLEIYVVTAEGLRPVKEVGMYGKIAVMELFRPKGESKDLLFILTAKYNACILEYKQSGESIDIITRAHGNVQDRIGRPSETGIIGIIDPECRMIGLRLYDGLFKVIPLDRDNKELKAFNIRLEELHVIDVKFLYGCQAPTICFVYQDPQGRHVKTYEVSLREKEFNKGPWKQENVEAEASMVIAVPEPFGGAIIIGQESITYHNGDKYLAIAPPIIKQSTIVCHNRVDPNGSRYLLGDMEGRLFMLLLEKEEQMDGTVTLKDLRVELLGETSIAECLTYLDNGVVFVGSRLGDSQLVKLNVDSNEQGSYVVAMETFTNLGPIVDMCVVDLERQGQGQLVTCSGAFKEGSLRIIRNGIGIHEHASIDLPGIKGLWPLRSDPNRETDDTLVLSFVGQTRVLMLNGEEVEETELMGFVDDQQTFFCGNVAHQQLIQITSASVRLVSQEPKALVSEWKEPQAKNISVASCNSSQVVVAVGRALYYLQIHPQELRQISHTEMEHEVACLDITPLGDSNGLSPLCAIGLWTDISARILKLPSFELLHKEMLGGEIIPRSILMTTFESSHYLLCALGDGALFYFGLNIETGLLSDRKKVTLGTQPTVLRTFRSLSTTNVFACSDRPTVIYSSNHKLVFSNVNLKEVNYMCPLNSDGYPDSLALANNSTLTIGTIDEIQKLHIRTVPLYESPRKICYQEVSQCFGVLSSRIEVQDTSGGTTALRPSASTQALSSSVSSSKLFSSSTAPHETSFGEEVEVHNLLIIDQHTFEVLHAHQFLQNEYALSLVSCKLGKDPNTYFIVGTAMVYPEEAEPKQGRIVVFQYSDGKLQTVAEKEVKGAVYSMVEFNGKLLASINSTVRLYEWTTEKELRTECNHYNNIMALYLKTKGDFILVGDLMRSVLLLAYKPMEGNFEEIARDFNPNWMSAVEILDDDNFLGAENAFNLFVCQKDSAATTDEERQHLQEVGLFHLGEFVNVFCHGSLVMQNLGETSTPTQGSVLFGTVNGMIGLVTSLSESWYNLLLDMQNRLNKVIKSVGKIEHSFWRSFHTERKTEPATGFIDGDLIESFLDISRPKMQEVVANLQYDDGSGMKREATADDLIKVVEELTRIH

Consider `C[C@H](NC(=O)c1ccc2c(c1)CN(C1CCC(=O)NC1=O)C2=O)c1ccccc1` (stereo partly drawn) [Example 1, 2-(2,6-Dioxopiperidin-3-yl)-1-oxo-N—((S)-1-phenylethyl)isoindoline-5-carboxamide], for which the DC50 (as a rule, the concentration giving 50% degradation) was under 100 nM and the Y entry was “* (a Y value (shown as *) of 0<Y≤20%)”.

With `CC(C)NC(=O)c1ccc2c(c1)CN(C1CCC(=O)NC1=O)C2=O` (stereo not shown) [Example 2], the DC50 was 100 to 500 nM and the Y result is on record as “** (a Y value (shown as**) of 20%<Y≤35%)”.

Turning to `C[C@H](NC(=O)c1ccc2c(c1)CN(C1CCC(=O)NC1=O)C2=O)C1CCCC1` (stereo partly shown) [Example 3], the DC50 was under 100 nM and the Y entry was “* (a Y value (shown as *) of 0<Y≤20%)”.

As to `C[C@@H](NC(=O)c1ccc2c(c1)CN(C1CCC(=O)NC1=O)C2=O)C1CCCCC1` (stereo partly shown) [Example 4], the DC50 is under 100 nM and the Y result is reported as “* (a Y value (shown as *) of 0<Y≤20%)”.

Take `C[C@H](NC(=O)c1ccc2c(c1)CN(C1CCC(=O)NC1=O)C2=O)C1CC1` (stereo partly shown) [Example 5]: the DC50 lay within 100 to 500 nM and the Y result is given as “** (a Y value (shown as**) of 20%<Y≤35%)”.

As for `CC[C@H](NC(=O)c1ccc2c(c1)CN(C1CCC(=O)NC1=O)C2=O)c1ccccc1` (stereo partly shown) [Example 6], the DC50 was under 100 nM and the Y result was “* (a Y value (shown as *) of 0<Y≤20%)”.

Take `Cc1ccc([C@H](C)NC(=O)c2ccc3c(c2)CN(C2CCC(=O)NC2=O)C3=O)cc1` (stereo partly shown) [Example 7]: the DC50 was under 100 nM and the Y entry is “* (a Y value (shown as *) of 0<Y≤20%)”.

Take `C[C@H](NC(=O)c1ccc2c(c1)CN(C1CCC(=O)NC1=O)C2=O)c1ccc(Cl)cc1` (stereo partly shown) [Example 8]: the DC50 was under 100 nM and the Y result was “* (a Y value (shown as *) of 0<Y≤20%)”.

On to `C[C@H](NC(=O)c1ccc2c(c1)CN(C1CCC(=O)NC1=O)C2=O)C1CCC1` (stereo partly shown) [Example 9], for which the DC50 is under 100 nM and the Y result is “** (a Y value (shown as**) of 20%<Y≤35%)”.

For the compound `C[C@H](NC(=O)c1ccc2c(c1)CN(C1CCC(=O)NC1=O)C2=O)c1ccccn1` (stereo partly shown) [Example 10], the DC50 lay in the range of 100 to 500 nM and the Y entry is “** (a Y value (shown as**) of 20%<Y≤35%)”.

As to `C[C@H](NC(=O)c1ccc2c(c1)CN(C1CCC(=O)NC1=O)C2=O)c1cccc(C#N)c1` (stereo partly shown) [Example 11], the DC50 was in the range of 100 to 500 nM and the Y entry was “** (a Y value (shown as**) of 20%<Y≤35%)”.

As for `COc1ccc([C@H](C)NC(=O)c2ccc3c(c2)CN(C2CCC(=O)NC2=O)C3=O)cc1` (stereo partly shown) [Example 12], the DC50 is under 100 nM and the Y entry was “** (a Y value (shown as**) of 20%<Y≤35%)”.

With `C[C@H](NC(=O)c1ccc2c(c1)CN(C1CCC(=O)NC1=O)C2=O)c1cccc(Cl)c1` (stereo partly shown) [Example 15], the DC50 is under 100 nM and the Y entry is on record as “* (a Y value (shown as *) of 0<Y≤20%)”.

As to `C[C@H](NC(=O)c1ccc2c(c1)CN(C1CCC(=O)NC1=O)C2=O)c1ccc(F)cc1` (stereo partly shown) [Example 16], the DC50 was under 100 nM and the Y entry is reported as “** (a Y value (shown as**) of 20%<Y≤35%)”.

Take `C[C@H](NC(=O)c1ccc2c(c1)CN(C1CCC(=O)NC1=O)C2=O)c1cccnc1` (stereo partly shown) [Example 19]: the DC50 fell in the range of 100 to 500 nM and the Y result is “** (a Y value (shown as**) of 20%<Y≤35%)”.

In the case of `O=C1CCC(N2Cc3cc(C(=O)N[C@H](C4CCCCC4)C(F)(F)F)ccc3C2=O)C(=O)N1` (stereo partly shown) [Example 23], the DC50 is under 100 nM and the Y entry is recorded as “* (a Y value (shown as *) of 0<Y≤20%)”.

As to `CC(C)[C@H](C)NC(=O)c1ccc2c(c1)CN(C1CCC(=O)NC1=O)C2=O` (stereo partly shown) [Example 28], the DC50 is 100 to 500 nM and the Y result was “** (a Y value (shown as**) of 20%<Y≤35%)”.

With `C[C@H](NC(=O)c1ccc2c(c1)CN(C1CCC(=O)NC1=O)C2=O)C(C)(C)C` (stereo partly shown) [Example 30], the DC50 is 500 to 1000 nM and the Y result was “** (a Y value (shown as**) of 20%<Y≤35%)”.

On to `COc1cccc([C@@H](NC(=O)c2ccc3c(c2)CN(C2CCC(=O)NC2=O)C3=O)C(F)(F)F)c1` (stereo partly shown) [Example 33], for which the DC50 was under 100 nM and the Y result was “* (a Y value (shown as *) of 0<Y≤20%)”.

On to `CC(C)(C)[C@@H](NC(=O)c1ccc2c(c1)CN(C1CCC(=O)NC1=O)C2=O)C(F)(F)F` (stereo partly drawn) [Example 34, 2-(2,6-dioxopiperidin-3-yl)-1-oxo-N-((R)-1,1,1-trifluoro-3,3-dimethylbutan-2-yl)isoindoline-5-carboxamide], for which the half-maximal degradation concentration (DC50) lay within 100 to 500 nM and the Y entry is recorded as “** (a Y value (shown as**) of 20%<Y≤35%)”.

On to `COc1ccc([C@@H](NC(=O)c2ccc3c(c2)CN(C2CCC(=O)NC2=O)C3=O)C(F)(F)F)cc1` (stereo partly drawn) [Example 35, 2-(2,6-dioxopiperidin-3-yl)-1-oxo-N-((R)-2,2,2-trifluoro-1-(4-methoxyphenyl)ethyl)isoindoline-5-carboxamide], for which the DC50 is under 100 nM and the Y result was “* (a Y value (shown as *) of 0<Y≤20%)”.

Consider `O=C1CCC(N2Cc3cc(C(=O)N[C@H](C4CCOCC4)C(F)(F)F)ccc3C2=O)C(=O)N1` (stereo partly drawn) [Example 36, 2-(2,6-dioxopiperidin-3-yl)-1-oxo-N-((R)-2,2,2-trifluoro-1-(tetrahydro-2H-pyran-4-yl)ethyl)isoindoline-5-carboxamide], for which the DC50 was in the range of 100 to 500 nM and the Y entry is listed as “** (a Y value (shown as**) of 20%<Y≤35%)”.

On to `O=C1CCC(N2Cc3cc(C(=O)N[C@H](c4cccc(F)c4)C(F)(F)F)ccc3C2=O)C(=O)N1` (stereo partly drawn) [Example 37, 2-(2,6-dioxopiperidin-3-yl)-1-oxo-N-((R)-2,2,2-trifluoro-1-(3-fluorophenyl)ethyl)isoindoline-5-carboxamide], for which the DC50 was under 100 nM and the Y entry is reported as “** (a Y value (shown as**) of 20%<Y≤35%)”.

Take `COc1ccccc1[C@@H](NC(=O)c1ccc2c(c1)CN(C1CCC(=O)NC1=O)C2=O)C(F)(F)F` (stereo partly drawn) [Example 38, 2-(2,6-dioxopiperidin-3-yl)-1-oxo-N-((R)-2,2,2-trifluoro-1-(2-methoxyphenyl)ethyl)isoindoline-5-carboxamide]: the DC50 was under 100 nM and the Y result is listed as “* (a Y value (shown as *) of 0<Y≤20%)”.

With `O=C1CCC(N2Cc3cc(C(=O)N[C@H](c4ccncc4)C(F)(F)F)ccc3C2=O)C(=O)N1` (stereo partly drawn) [Example 39, 2-(2,6-dioxopiperidin-3-yl)-1-oxo-N-((R)-2,2,2-trifluoro-1-(pyridin-4-yl)ethyl)isoindoline-5-carboxamide], the DC50 was 500 to 1000 nM and the Y result is “*** (a Y value (shown as***) of 35%<Y<50%)”.

Regarding `O=C1CCC(N2Cc3cc(C(=O)N[C@H](c4ccc(C(F)(F)F)cc4)C(F)(F)F)ccc3C2=O)C(=O)N1` (stereo partly drawn) [Example 40, 2-(2,6-dioxopiperidin-3-yl)-1-oxo-N-((R)-2,2,2-trifluoro-1-(4-(trifluoromethyl)phenyl)ethyl)isoindoline-5-carboxamide], the DC50 is under 100 nM and the Y result was “* (a Y value (shown as *) of 0<Y≤20%)”.

In the case of `O=C1CCC(N2Cc3cc(C(=O)N[C@H](c4ccc(OC(F)(F)F)cc4)C(F)(F)F)ccc3C2=O)C(=O)N1` (stereo partly drawn) [Example 41, 2-(2,6-dioxopiperidin-3-yl)-1-oxo-N-((R)-2,2,2-trifluoro-1-(4-(trifluoromethoxy)phenyl)ethyl)isoindoline-5-carboxamide], the half-maximal degradation concentration (DC50) lay in the range of 100 to 500 nM and the Y result is reported as “* (a Y value (shown as *) of 0<Y≤20%)”.

Regarding `O=C1CCC(N2Cc3cc(C(=O)N[C@H](c4ccc(Cl)cc4)C(F)(F)F)ccc3C2=O)C(=O)N1` (stereo partly drawn) [Example 42, N-((R)-1-(4-chlorophenyl)-2,2,2-trifluoroethyl)-2-(2,6-dioxopiperidin-3-yl)-1-oxoisoindoline-5-carboxamide], the DC50 is under 100 nM and the Y result is given as “* (a Y value (shown as *) of 0<Y≤20%)”.

For `O=C1CCC(N2Cc3cc(C(=O)N[C@H](c4cccc(Cl)c4)C(F)(F)F)ccc3C2=O)C(=O)N1` (stereo partly drawn) [Example 43, N-((R)-1-(3-chlorophenyl)-2,2,2-trifluoroethyl)-2-(2,6-dioxopiperidin-3-yl)-1-oxoisoindoline-5-carboxamide], the DC50 was under 100 nM and the Y entry is given as “* (a Y value (shown as *) of 0<Y≤20%)”.

Take `O=C1CCC(N2Cc3cc(C(=O)N[C@H](c4ccccc4OC(F)(F)F)C(F)(F)F)ccc3C2=O)C(=O)N1` (stereo partly drawn) [Example 44, 2-(2,6-dioxopiperidin-3-yl)-1-oxo-N-((R)-2,2,2-trifluoro-1-(2-(trifluoromethoxy)phenyl)ethyl)isoindoline-5-carboxamide]: the 50% degradation concentration (DC50) is under 100 nM and the Y result was “* (a Y value (shown as *) of 0<Y≤20%)”.

Take `O=C1CCC(N2Cc3cc(C(=O)N[C@H](C4CCC(F)(F)CC4)C(F)(F)F)ccc3C2=O)C(=O)N1` (stereo partly drawn) [Example 45, N-((R)-1-(4,4-difluorocyclohexyl)-2,2,2-trifluoroethyl)-2-(2,6-dioxopiperidin-3-yl)-1-oxoisoindoline-5-carboxamide]: the DC50 was in the range of 100 to 500 nM and the Y entry is listed as “* (a Y value (shown as *) of 0<Y≤20%)”.

`CC1(C)CCC([C@@H](NC(=O)c2ccc3c(c2)CN(C2CCC(=O)NC2=O)C3=O)C(F)(F)F)CC1` (stereo partly drawn) [Example 46, N-((R)-1-(4,4-dimethylcyclohexyl)-2,2,2-trifluoroethyl)-2-(2,6-dioxopiperidin-3-yl)-1-oxoisoindoline-5-carboxamide]: the DC50 fell in the range of 100 to 500 nM and the Y entry was “* (a Y value (shown as *) of 0<Y≤20%)”.
